From patent US20070265208A1, “Association of calpain inhibitors and reactive oxygen species trapping agents” (priority 2000, published 2007)

Tests used:
[1] = target: T1, human calpain I (Homo sapiens, UniProt P07384); test: Effects on human calpain I (acellular, Suc-Leu-Tyr-AMC fluorescence); assay type: biochemical; details: enzyme purified from human erythrocytes; 1 h at 25°C; read-out: Inhibition human calpain I, acellular [IC50 (nM)]
T1 construct: enzyme purified from human erythrocytes; purchased Calbiochem 208713; host or cells: human erythrocytes (native tissue source)
T1 sequence (P07384 1-714): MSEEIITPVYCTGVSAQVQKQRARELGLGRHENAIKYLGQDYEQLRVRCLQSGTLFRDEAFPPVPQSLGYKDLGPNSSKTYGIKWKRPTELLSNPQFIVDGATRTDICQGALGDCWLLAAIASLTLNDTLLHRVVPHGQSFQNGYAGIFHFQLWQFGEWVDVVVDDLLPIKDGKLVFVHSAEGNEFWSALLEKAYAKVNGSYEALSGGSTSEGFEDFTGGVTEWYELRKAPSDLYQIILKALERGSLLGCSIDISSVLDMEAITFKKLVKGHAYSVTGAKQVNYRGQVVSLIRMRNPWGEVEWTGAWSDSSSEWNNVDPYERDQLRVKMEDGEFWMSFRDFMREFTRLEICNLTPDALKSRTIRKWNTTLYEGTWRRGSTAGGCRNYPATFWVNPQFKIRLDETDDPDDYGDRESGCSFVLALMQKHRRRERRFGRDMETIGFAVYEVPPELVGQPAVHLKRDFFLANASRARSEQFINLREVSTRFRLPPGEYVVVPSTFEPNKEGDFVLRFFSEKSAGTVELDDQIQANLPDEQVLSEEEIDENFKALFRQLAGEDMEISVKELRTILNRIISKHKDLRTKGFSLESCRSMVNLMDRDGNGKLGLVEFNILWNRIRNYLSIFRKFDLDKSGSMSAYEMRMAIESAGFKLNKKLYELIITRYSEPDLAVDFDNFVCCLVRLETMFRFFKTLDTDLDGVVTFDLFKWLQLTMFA
T1 sequence (P04632 1-268 partner): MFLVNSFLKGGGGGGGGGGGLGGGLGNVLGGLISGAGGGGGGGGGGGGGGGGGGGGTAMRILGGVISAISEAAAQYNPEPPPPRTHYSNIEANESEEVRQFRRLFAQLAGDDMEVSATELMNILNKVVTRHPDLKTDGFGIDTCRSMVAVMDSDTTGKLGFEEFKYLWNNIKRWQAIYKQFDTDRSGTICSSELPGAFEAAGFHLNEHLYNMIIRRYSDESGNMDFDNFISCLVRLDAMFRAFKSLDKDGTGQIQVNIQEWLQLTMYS
Experimental: The test consists of measuring the activity of the enzyme (enzyme purified from human erythrocytes) which is incubated in a buffer in the presence of a peptide substrate coupled with a fluorochrome (amino-methylcourmarin, AMC) and calcium. The enzyme activated by the calcium, proteolyses the substrate and releases the AMC fragment. The AMC released fluoresces at 460 nm under excitation at 380 nm. The activity of the enzyme is therefore proportional to the quantity of fluorescence i.e. of free AMC fragment. The fluorescence (380/460 nm) is measured using a multi-well fluorimeter (Victor 2, Wallac).
Assay is carried out in 96-well microplates with transparent bottoms and black walls in which 10 μl per well of substance to be tested in DMSO 10%, 45 μl of reaction mixture containing the human calpain I at 2.2 U/ml (Calbiochem, ref: 208713), the Suc Leu Tyr-AMC substrate (Bachem, ref: I-1355) at 1.1 mM in a buffer (Tris-HCl 110 mM; NaCl 110 mM; EDTA 2.2 mM; EGTA 2.2 mM; mercaptoethanol 1.1 mM) are distributed. The reaction is initiated by adding 45 μl of CaCl2 22mM. To determine the background noise, control wells without calcium are added to the plate (10 μL DMSO 10%+45 μL of buffer with the enzyme and the susbtrate +45 μL H2O). In order to determine the total activity of the enzyme control wells containing no product are added to the plate (10 μL DMSO 10%+45 μL of buffer with the enzyme and the substrate +45 μL of CaCl2 22 mM ). Each concentration of the products (0.1 nM to 10 μM) is tested in duplicate. The plates are shaken and incubation takes place for one hour at 25° C. in darkness. The fluorescence is read at 380/460 nm using the Victor.

[2] = tested on: calpain activity in human neuroblastomas (SHSY5Y); test: In situ calpain activity in human neuroblastomas SHSY5Y stimulated by maitotoxin; assay type: cell-based; details: read-out: Inhibition human calpain I, in situ (SHSY5Y) [IC50 (nM)]; n = 6; maitotoxin 1 nM; 4 h
Experimental: Human neuroblastomas SHSY5Y and rat glial cells C6 are seeded at a rate of 50,000 and 25,000 cells respectively per well on 96-well plates in DMEM 10% FBS. The next day, the cells which have adhered are washed 3 times in DMEM medium without serum and 40 mM Hepes. 100 microlitres of product B is placed in the wells. After incubation for 1 hour at 37° C. under an atmosphere of 5% CO2, 10 μl containing the fluorescent substrate of calpain (Suc-Leu-Tyr-AMC) and maitotoxin (Sigma, ref: M-9159), in order to obtain a final concentration in the well of 100 μM and of 1 nM respectively are added.
In order to determine the total activity of the cell enzyme, wells containing no product are added to the plate (100 μL DMSO 100th plus 10 μl of MTX and substrate). The background noise is determined by adding control wells with no MTX. Each concentration of the products (0.3 μM to 200 μM for the SHSY5Y's and 0.01 μM to 100 μM for the C6's) is tested in triplicate. The plates are shaken, the fluorescence is read at 380/460 nm using the Victor at T zero. Incubation takes place for four hours for the SHSY5Y and 1 hour 30 minutes for the C6 cells at 30° C. in darkness.

CC(C)C[C@@H](C=O)NC(=O)[C@H](CC(C)C)NC(=O)OCc1ccccc1 [EXAMPLE 1 B, benzyl (1S)-1-({[(1S)-1-formyl-3-methylbutyl]amino}carbonyl)-3-methylbutylcarbamate]
IC50 [1]: 6 nM
IC50 [2]: 13400 ± 2390 nM
